Reference: US10519152B2, “Compounds and their use in treating cancer” (AstraZeneca AB, priority 2017, dated 2019)

Target: T1, recombinant human Estrogen Receptor alpha ligand binding domain, residues 307-554 (ER alpha-LBD (GST)) (Homo sapiens, UniProt P03372)
T1 construct: made in house
T1 sequence (P03372 307-554): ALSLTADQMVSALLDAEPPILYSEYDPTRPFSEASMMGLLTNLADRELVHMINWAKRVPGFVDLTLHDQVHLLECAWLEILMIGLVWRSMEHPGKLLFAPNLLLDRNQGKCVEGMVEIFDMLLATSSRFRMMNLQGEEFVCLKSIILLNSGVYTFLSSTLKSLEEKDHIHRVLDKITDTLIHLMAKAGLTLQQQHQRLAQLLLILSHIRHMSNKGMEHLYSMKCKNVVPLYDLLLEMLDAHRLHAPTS
Test: ERα binding assay (LanthaScreen TR-FRET competition)
Settings: TR-FRET competition with Fluormone ES2 tracer, 4 hours at room temperature; single experiment or average of two or more

Row | SMILES | IC50
1 | Cc1ncsc1-c1ccc(CNC(=O)[C@@H]2C[C@@H](O)CN2C(=O)[C@@H](NC(=O)COCCOc2ccc(COc3cc(F)c([C@@H]4c5[nH]c6ccccc6c5C[C@@H](C)N4CC(C)(C)F)c(F)c3)cc2)C(C)(C)C)cc1 [Example 5, (2S,4R)-1-((S)-2-(2-(2-(4-((3,5-Difluoro-4-((1R,3R)-2-(2-fluoro-2-methylpropyl)-3-methyl-2,3,4,9-tetrahydro-1H-pyrido[3,4-b]indol-1-yl)phenoxy)methyl)phenoxy)ethoxy)acetamido)-3,3-dimethylbutanoyl)-4-hydroxy-N-(4-(4-methylthiazol-5-yl)benzyl)pyrrolidine-2-carboxamide] | 0.8 nM
2 | Cc1ncsc1-c1ccc(CNC(=O)[C@@H]2C[C@@H](O)CN2C(=O)[C@@H](NC(=O)COCCCCCCCOc2ccc([C@@H]3c4[nH]c5ccccc5c4C[C@@H](C)N3CC(F)F)nc2)C(C)(C)C)cc1 [Example 6, (2S,4R)-1-((S)-2-(2-((7-((6-((1S,3R)-2-(2,2-Difluoroethyl)-3-methyl-2,3,4,9-tetrahydro-1H-pyrido[3,4-b]indol-1-yl)pyridin-3-yl)oxy)heptyl)oxy)acetamido)-3,3-dimethylbutanoyl)-4-hydroxy-N-(4-(4-methylthiazol-5-yl)benzyl)pyrrolidine-2-carboxamide] | 4.2 nM
3 | Cc1ncsc1-c1ccc(CNC(=O)[C@@H]2C[C@@H](O)CN2C(=O)[C@@H](NC(=O)COCCCCCCCOc2cc(F)c([C@@H]3c4[nH]c5ccccc5c4C[C@@H](C)N3CC(C)(C)F)c(F)c2)C(C)(C)C)cc1 [Example 7, (2S,4R)-1-((S)-2-(2-((7-(3,5-Difluoro-4-((1R,3R)-2-(2-fluoro-2-methylpropyl)-3-methyl-2,3,4,9-tetrahydro-1H-pyrido[3,4-b]indol-1-yl)phenoxy)heptyl)oxy)acetamido)-3,3-dimethylbutanoyl)-4-hydroxy-N-(4-(4-methylthiazol-5-yl)benzyl)pyrrolidine-2-carboxamide] | 1.2 nM
4 | Cc1ncsc1-c1ccc(CNC(=O)[C@@H]2C[C@@H](O)CN2C(=O)[C@@H](NC(=O)COCCCCCCOc2ccc([C@@H]3c4[nH]c5ccccc5c4C[C@@H](C)N3CC(F)F)nc2)C(C)(C)C)cc1 [Example 8, (2S,4R)-1-((S)-2-(2-((6-((6-((1S,3R)-2-(2,2-Difluoroethyl)-3-methyl-2,3,4,9-tetrahydro-1H-pyrido[3,4-b]indol-1-yl)pyridin-3-yl)oxy)hexyl)oxy)acetamido)-3,3-dimethylbutanoyl)-4-hydroxy-N-(4-(4-methylthiazol-5-yl)benzyl)pyrrolidine-2-carboxamide] | 6.8 nM
5 | Cc1ncsc1-c1ccc(CNC(=O)[C@@H]2C[C@@H](O)CN2C(=O)[C@@H](NC(=O)COCCCCCOCCOc2cc(F)c([C@@H]3c4[nH]c5ccccc5c4C[C@@H](C)N3CC(C)(C)F)c(F)c2)C(C)(C)C)cc1 [Example 9, (2S,4R)-1-((S)-2-(2-((5-(2-(3,5-Difluoro-4-((1R,3R)-2-(2-fluoro-2-methylpropyl)-3-methyl-2,3,4,9-tetrahydro-1H-pyrido[3,4-b]indol-1-yl)phenoxy)ethoxy)pentyl)oxy)acetamido)-3,3-dimethylbutanoyl)-4-hydroxy-N-(4-(4-methylthiazol-5-yl)benzyl)pyrrolidine-2-carboxamide] | 0.8 nM
6 | Cc1ncsc1-c1ccc(CNC(=O)[C@@H]2C[C@@H](O)CN2C(=O)[C@@H](NC(=O)COCCCCCOCCOc2ccc([C@@H]3c4[nH]c5ccccc5c4C[C@@H](C)N3CC(F)F)nc2)C(C)(C)C)cc1 [Example 10, (2S,4R)-1-((S)-2-(2-((5-(2-((6-((1S,3R)-2-(2,2-Difluoroethyl)-3-methyl-2,3,4,9-tetrahydro-1H-pyrido[3,4-b]indol-1-yl)pyridin-3-yl)oxy)ethoxy)pentyl)oxy)acetamido)-3,3-dimethylbutanoyl)-4-hydroxy-N-(4-(4-methylthiazol-5-yl)benzyl)pyrrolidine-2-carboxamide] | 39 nM
7 | Cc1ncsc1-c1ccc(CNC(=O)[C@@H]2C[C@@H](O)CN2C(=O)[C@@H](NC(=O)CCCCCCCCCOc2cc(F)c([C@@H]3c4[nH]c5ccccc5c4C[C@@H](C)N3CC(C)(C)F)c(F)c2)C(C)(C)C)cc1 [Example 11, (2S,4R)-1-((S)-2-(10-(3,5-Difluoro-4-((1R,3R)-2-(2-fluoro-2-methylpropyl)-3-methyl-2,3,4,9-tetrahydro-1H-pyrido[3,4-b]indol-1-yl)phenoxy)decanamido)-3,3-dimethylbutanoyl)-4-hydroxy-N-(4-(4-methylthiazol-5-yl)benzyl)pyrrolidine-2-carboxamide] | 1.5 nM
8 | Cc1ncsc1-c1ccc(CNC(=O)[C@@H]2C[C@@H](O)CN2C(=O)[C@@H](NC(=O)COCCCCCCCCOc2cc(F)c([C@@H]3c4[nH]c5ccccc5c4C[C@@H](C)N3CC(C)(C)F)c(F)c2)C(C)(C)C)cc1 [Example 12, (2S,4R)-1-((S)-2-(2-((8-(3,5-Difluoro-4-((1R,3R)-2-(2-fluoro-2-methylpropyl)-3-methyl-2,3,4,9-tetrahydro-1H-pyrido[3,4-b]indol-1-yl)phenoxy)octyl)oxy)acetamido)-3,3-dimethylbutanoyl)-4-hydroxy-N-(4-(4-methylthiazol-5-yl)benzyl)pyrrolidine-2-carboxamide] | 1.6 nM
9 | Cc1ncsc1-c1ccc(CNC(=O)[C@@H]2C[C@@H](O)CN2C(=O)[C@@H](NC(=O)COCCCCCCCCOc2ccc([C@@H]3c4[nH]c5ccccc5c4C[C@@H](C)N3CC(F)F)nc2)C(C)(C)C)cc1 [Example 13, (2S,4R)-1-((S)-2-(2-((8-((6-((1S,3R)-2-(2,2-Difluoroethyl)-3-methyl-2,3,4,9-tetrahydro-1H-pyrido[3,4-b]indol-1-yl)pyridin-3-yl)oxy)octyl)oxy)acetamido)-3,3-dimethylbutanoyl)-4-hydroxy-N-(4-(4-methylthiazol-5-yl)benzyl)pyrrolidine-2-carboxamide] | 5 nM
10 | Cc1ncsc1-c1ccc(CNC(=O)[C@@H]2C[C@@H](O)CN2C(=O)[C@@H](NC(=O)COCCCCOc2cc(F)c([C@@H]3c4[nH]c5ccccc5c4C[C@@H](C)N3CC(C)(C)F)c(F)c2)C(C)(C)C)cc1 [Example 14, (2S,4R)-1-((S)-2-(2-(4-(3,5-Difluoro-4-((1R,3R)-2-(2-fluoro-2-methylpropyl)-3-methyl-2,3,4,9-tetrahydro-1H-pyrido[3,4-b]indol-1-yl)phenoxy)butoxy)acetamido)-3,3-dimethylbutanoyl)-4-hydroxy-N-(4-(4-methylthiazol-5-yl)benzyl)pyrrolidine-2-carboxamide] | 0.9 nM
11 | Cc1ncsc1-c1ccc(CNC(=O)[C@@H]2C[C@@H](O)CN2C(=O)[C@@H](NC(=O)CCCCCCCCOc2cc(F)c([C@@H]3c4[nH]c5ccccc5c4C[C@@H](C)N3CC(C)(C)F)c(F)c2)C(C)(C)C)cc1 [Example 15, (2S,4R)-1-((S)-2-(9-(3,5-Difluoro-4-((1R,3R)-2-(2-fluoro-2-methylpropyl)-3-methyl-2,3,4,9-tetrahydro-1H-pyrido[3,4-b]indol-1-yl)phenoxy)nonanamido)-3,3-dimethylbutanoyl)-4-hydroxy-N-(4-(4-methylthiazol-5-yl)benzyl)pyrrolidine-2-carboxamide] | 1.5 nM
12 | Cc1ncsc1-c1ccc(CNC(=O)[C@@H]2C[C@@H](O)CN2C(=O)[C@@H](NC(=O)COCCCCOCCOc2cc(F)c([C@@H]3c4[nH]c5ccccc5c4C[C@@H](C)N3CC(C)(C)F)c(F)c2)C(C)(C)C)cc1 [Example 16, (2S,4R)-1-((S)-2-(2-(4-(2-(3,5-Difluoro-4-((1R,3R)-2-(2-fluoro-2-methylpropyl)-3-methyl-2,3,4,9-tetrahydro-1H-pyrido[3,4-b]indol-1-yl)phenoxy)ethoxy)butoxy)acetamido)-3,3-dimethylbutanoyl)-4-hydroxy-N-(4-(4-methylthiazol-5-yl)benzyl)pyrrolidine-2-carboxamide] | 0.8 nM
13 | Cc1ncsc1-c1ccc(CNC(=O)[C@@H]2C[C@@H](O)CN2C(=O)[C@@H](NC(=O)COCCCCCOc2ccc([C@@H]3c4[nH]c5ccccc5c4C[C@@H](C)N3CC(F)F)nc2)C(C)(C)C)cc1 [Example 17, (2S,4R)-1-((S)-2-(2-((5-((6-((1S,3R)-2-(2,2-Difluoroethyl)-3-methyl-2,3,4,9-tetrahydro-1H-pyrido[3,4-b]indol-1-yl)pyridin-3-yl)oxy)pentyl)oxy)acetamido)-3,3-dimethylbutanoyl)-4-hydroxy-N-(4-(4-methylthiazol-5-yl)benzyl)pyrrolidine-2-carboxamide] | 5.5 nM
14 | Cc1ncsc1-c1ccc(CNC(=O)[C@@H]2C[C@@H](O)CN2C(=O)[C@@H](NC(=O)COCCCCCOc2cc(F)c([C@@H]3c4[nH]c5ccccc5c4C[C@@H](C)N3CC(C)(C)F)c(F)c2)C(C)(C)C)cc1 [Example 18, (2S,4R)-1-((S)-2-(2-((5-(3,5-Difluoro-4-((1R,3R)-2-(2-fluoro-2-methylpropyl)-3-methyl-2,3,4,9-tetrahydro-1H-pyrido[3,4-b]indol-1-yl)phenoxy)pentyl)oxy)acetamido)-3,3-dimethylbutanoyl)-4-hydroxy-N-(4-(4-methylthiazol-5-yl)benzyl)pyrrolidine-2-carboxamide] | 0.6 nM
15 | Cc1ncsc1-c1ccc(CNC(=O)[C@@H]2C[C@@H](O)CN2C(=O)[C@@H](NC(=O)COc2cccc(COc3cc(F)c([C@@H]4c5[nH]c6ccccc6c5C[C@@H](C)N4CC(C)(C)F)c(F)c3)c2)C(C)(C)C)cc1 [Example 20, (2S,4R)-1-((S)-2-(2-(3-((3,5-difluoro-4-((1R,3R)-2-(2-fluoro-2-methylpropyl)-3-methyl-2,3,4,9-tetrahydro-1H-pyrido[3,4-b]indol-1-yl)phenoxy)methyl)phenoxy)acetamido)-3,3-dimethylbutanoyl)-4-hydroxy-N-(4-(4-methylthiazol-5-yl)benzyl)pyrrolidine-2-carboxamide] | 1 nM
